Activity calls are given as the source filed them. No cut-off for these calls is given here.
Target: Beta-lactamase TEM (Escherichia coli) (UniProt P62593)
Experiment: Inhibitory activity towards beta-lactamase enzyme at 50 mM concentration or higher; Weak inhibitor

Sequence of Beta-lactamase TEM (Escherichia coli) (P62593 whole entry): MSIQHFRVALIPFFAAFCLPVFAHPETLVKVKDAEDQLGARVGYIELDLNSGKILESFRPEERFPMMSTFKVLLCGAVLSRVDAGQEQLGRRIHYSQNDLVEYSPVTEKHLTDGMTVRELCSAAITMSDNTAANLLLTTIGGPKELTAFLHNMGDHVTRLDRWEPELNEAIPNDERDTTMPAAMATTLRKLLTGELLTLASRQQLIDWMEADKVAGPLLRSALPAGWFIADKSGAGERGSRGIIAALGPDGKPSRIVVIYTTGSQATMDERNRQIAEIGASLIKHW

CC(=O)[C@@H]1[C@H](NC(=O)c2ccccc2)C(=O)N1C1(C(=O)O)CC1
Activity: inactive

Reference: ChEMBL document CHEMBL1127145, “Syntheses of novel 1-aminocyclopropane-1-carboxylic acid (ACC)-containing -lactams” (Bioorg Med Chem Lett, 1993)
